Like-named read-outs stand apart in the source and are kept apart here.
What was measured:
Jurkat = assay: Cell proliferation modulatory activity, Jurkat; assay type: cell-based
recombinant human PIM1 = recombinant human PIM1 (Homo sapiens (Human), UniProt P11309); assay: PIM-1 kinase activity in cell-free in vitro assay; assay type: biochemical; conditions: cell-free assay; for inhibition at 0.5 µM / PIM-1: % inh 500 nM: 500 nM compound; for inhibition at 0.5 µM: read-out: PIM-1: % inh 500 nM
[1] = tested on: HCT-116 human colorectal carcinoma cells; assay: Cell-proliferation assay using Alamar Blue dye; assay type: cell-based; conditions: Homo sapiens;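 further: cells exposed to compound for about 4 days, then Alamar Blue added and dye fluorescence read after about 4 h, compared with medium-only control wells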
K-562 = assay: Cell proliferation modulatory activity, K-562; assay type: cell-based; conditions: Homo sapiens, K562; K-562 cells
recombinant human CK2 = recombinant human CK2 (Homo sapiens (Human), UniProt P68400); assay: CK2 assay (cell-free, 33P-ATP filter plate); assay type: biochemical; conditions: 500 nM compound, cell-free assay; read-out: CK2: % inh 500 nM
MV-4-11 = assay: Cell proliferation modulatory activity, MV-4-11; assay type: cell-based; conditions: Homo sapiens, MV4-11; MV-4-11 cells
[2] = HCT-116, HCT-116, second HCT-116 column (c8), read-out: HCT-116 (uM), cell proliferation modulatory activity
[3] = HCT-116, second HCT-116 column (c8), read-out: HCT-116 (uM) cell proliferation modulatory activity

Sequence of recombinant human PIM1 (P11309 whole entry): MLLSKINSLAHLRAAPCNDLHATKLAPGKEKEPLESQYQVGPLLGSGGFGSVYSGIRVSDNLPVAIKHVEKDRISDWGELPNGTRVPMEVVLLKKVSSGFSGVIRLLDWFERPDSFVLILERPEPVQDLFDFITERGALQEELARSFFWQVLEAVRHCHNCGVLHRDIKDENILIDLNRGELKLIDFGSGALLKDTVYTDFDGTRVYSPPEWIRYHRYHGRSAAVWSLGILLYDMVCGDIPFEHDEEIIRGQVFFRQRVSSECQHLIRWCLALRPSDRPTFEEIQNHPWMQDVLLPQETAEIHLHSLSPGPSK
Sequence of recombinant human CK2 (P68400 whole entry): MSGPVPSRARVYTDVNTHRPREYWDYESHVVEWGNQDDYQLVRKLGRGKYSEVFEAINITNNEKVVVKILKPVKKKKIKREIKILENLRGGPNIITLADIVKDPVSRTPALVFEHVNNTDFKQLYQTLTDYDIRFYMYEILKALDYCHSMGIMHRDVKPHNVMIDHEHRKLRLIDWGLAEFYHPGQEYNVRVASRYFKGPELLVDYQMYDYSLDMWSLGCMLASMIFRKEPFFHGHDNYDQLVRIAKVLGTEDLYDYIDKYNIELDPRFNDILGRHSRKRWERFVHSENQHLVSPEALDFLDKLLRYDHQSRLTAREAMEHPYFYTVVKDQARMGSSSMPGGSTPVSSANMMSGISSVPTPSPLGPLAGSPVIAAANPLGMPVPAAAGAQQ
Sequence of recombinant human CK2 (P67870 whole entry partner): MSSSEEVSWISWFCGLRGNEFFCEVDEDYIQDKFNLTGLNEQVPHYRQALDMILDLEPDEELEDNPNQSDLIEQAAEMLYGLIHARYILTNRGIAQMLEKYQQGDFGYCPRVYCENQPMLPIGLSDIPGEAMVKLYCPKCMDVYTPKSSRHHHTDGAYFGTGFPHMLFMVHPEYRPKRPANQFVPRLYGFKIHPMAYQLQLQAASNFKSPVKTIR

Structure (SMILES)	IC50 (Jurkat; Homo sapiens) [µM]	inhibition at 0.5 µM (recombinant human PIM1) [%]	IC50 [1, 2] [µM]	further results
CCCNc1ncc2c(n1)c(Nc1ccccc1)nc1cc(C(=O)O)ccc12	4.53	29.9	–	–
COCCNc1ncc2c(n1)c(Nc1ccccc1)nc1cc(C(=O)O)ccc12	5.8	19.8	–	–
O=C(O)c1ccc2c(c1)nc(Nc1ccccc1)c1nc(NCCCO)ncc12	7.9	49.3	–	–
C#Cc1cccc(Nc2nc3cc(C(=O)O)ccc3c3cnc(NCCC)nc23)c1	2.67	45.6	–	–
C#Cc1cccc(Nc2nc3cc(C(=O)O)ccc3c3cnc(NCCCN4CCOCC4)nc23)c1	3.69	41.6	–	–
O=C(O)c1ccc2c(c1)nc(Nc1cccc(C(F)(F)F)c1)c1ncncc12	2.53	–	–	–
CN(C)c1ncc2c(n1)c(Nc1cccc(Cl)c1)nc1cc(C(=O)O)ccc12	5.83	–	> 10	–
Nc1ncc2c(n1)c(Nc1cccc(Cl)c1)nc1cc(C(=O)O)ccc12	1.14	85.7	–	–
CCNc1ncc2c(n1)c(Nc1cccc(Cl)c1)nc1cc(C(=O)O)ccc12	3.06	–	–	–
Nc1ncc2c(n1)c(Nc1ccc(F)c(Cl)c1)nc1cc(C(=O)O)ccc12	4.34	38.8	–	–
COCCNc1ncc2c(n1)c(Nc1ccc(F)c(Cl)c1)nc1cc(C(=O)O)ccc12	0.413	22.9	–	–
C#Cc1cccc(Nc2nc3cc(C(=O)O)ccc3c3cnc(NCCCOCC)nc23)c1	0.389	2.19	–	–
C#Cc1cccc(Nc2nc3cc(C(=O)O)ccc3c3cnc(NCCCOC(C)C)nc23)c1	2.37	-1.78	–	–
COC(=O)c1ccc2c(c1)nc(Nc1cccc(Cl)c1)c1nc(NCCC(N)=O)ncc12	4.41	-12.6	–	–
NC(=O)CCNc1ncc2c(n1)c(Nc1cccc(Cl)c1)nc1cc(C(=O)O)ccc12	37.7	–	–	–
O=C(O)c1ccc2c(c1)nc(Nc1cc(F)cc(F)c1)c1nc(NC3CC3)ncc12	6.02	48.9	–	–
COc1cccc(Nc2nc3cc(C(=O)O)ccc3c3cnc(NC4CC4)nc23)c1	3.44	36.5	–	–
CN(C)CCNc1ncc2c(n1)c(Nc1ccc(F)c(Cl)c1)nc1cc(C(=O)O)ccc12	1.25	53	–	–
O=C(O)c1ccc2c(c1)nc(Nc1ccc(F)c(Cl)c1)c1nc(NCc3ccccn3)ncc12	2.59	59.1	–	–
COC(CNc1ncc2c(n1)c(Nc1ccc(F)c(Cl)c1)nc1cc(C(=O)O)ccc12)OC	1.12	57.6	–	–
O=C(NC1CC1)c1ccc2c(c1)nc(Nc1cccc(C(F)(F)F)c1)c1nc(NC3CC3)ncc12	3.92	16.7	–	–

Structure (SMILES)	IC50 (Jurkat; Homo sapiens) [µM]	inhibition at 0.5 µM (recombinant human PIM1) [%]	IC50 [1, 2] [µM]	further results
CNC(=O)c1ccc2c(c1)nc(Nc1cccc(C(F)(F)F)c1)c1nc(NC3CC3)ncc12	3.65	16.2	–	–
O=C(O)c1ccc2c(c1)nc(Nc1ccc(F)c(Cl)c1)c1nc(NCc3cccnc3)ncc12	1.5	19.6	–	–
O=C(O)c1ccc2c(c1)nc(Nc1ccccc1)c1nc(Nc3ccccc3)ncc12	8.98	13	–	–
CCOC(=O)CCNC(=O)c1ccc2c(c1)nc(Nc1cccc(C(F)(F)F)c1)c1nc(NC3CC3)ncc12	7.24	10.5	–	–
CN(C)c1ncc2c(n1)c(NC1CC1)nc1cc(C(=O)O)ccc12	> 50	-38.5	> 10	–
C#Cc1cccc(Nc2nc3cc(C(N)=O)ccc3c3cncnc23)c1	31.5	-38.1	> 10	–
CC(=O)Nc1ccc2c(c1)nc(Nc1cccc(C(F)(F)F)c1)c1nc(NC3CC3)ncc12	1.22	-39.8	> 10	–
O=C(O)c1ccc2c(c1)nc(NC1CC1)c1nc(NCCO)ncc12	> 50	22.4	–	–
O=C(O)c1ccc2c(c1)nc(NC1CC1)c1nc(NCCN3CCOCC3)ncc12	21	41.2	> 10	–
O=C(O)c1ccc2c(c1)nc(NC1CC1)c1nc(NC(CO)c3ccccc3)ncc12 (stereo not drawn)	27.5	-22.8	> 10	–
O=C(O)c1ccc2c(c1)nc(NC1CC1)c1nc(NNCCO)ncc12	> 50	-37	> 10	–
O=C(O)c1ccc2c(c1)nc(NC1CC1)c1nc(NC3CCNCC3)ncc12	> 50	18.9	> 10	–
COC(=O)c1ccc2c(c1)nc(N)c1nc(SC)ncc12	1.14	-13.2	4.77	–
C#Cc1cccc(Nc2nc3cc(C(=O)NC)ccc3c3cncnc23)c1	1.95	-28.3	7.17	–
C#Cc1cccc(Nc2nc3cc(C(=O)NC4CC4)ccc3c3cncnc23)c1	1.54	-13.1	3.49	–
O=C(O)c1ccc2c(c1)nc(NC1CC1)c1nc(Nc3ccc(F)cc3)ncc12	5.02	49.3	> 10	IC50 (recombinant human PIM1): 1.07 µM
O=C(O)c1ccc2c(c1)nc(NC1CC1)c1nc(Nc3ccc(F)c(Cl)c3)ncc12	26.6	8.76	> 10	–
COc1ccc(Nc2ncc3c(n2)c(NC2CC2)nc2cc(C(=O)O)ccc23)cc1Cl	9.17	38.7	2.31	–
O=C(O)c1ccc2c(c1)nc(NC1CC1)c1nc(Nc3cccc4ccccc34)ncc12	23.3	22.9	> 10	–
Cc1ccccc1Nc1ncc2c(n1)c(NC1CC1)nc1cc(C(=O)O)ccc12	18.6	52.8	> 10	IC50 (recombinant human PIM1): 0.994 µM
CCOc1cccc(Nc2ncc3c(n2)c(NC2CC2)nc2cc(C(=O)O)ccc23)c1	5.17	32.8	3.77	–

Structure (SMILES)	IC50 (Jurkat; Homo sapiens) [µM]	inhibition at 0.5 µM (recombinant human PIM1) [%]	IC50 [1, 2] [µM]	further results
CCOc1ccc(Nc2ncc3c(n2)c(NC2CC2)nc2cc(C(=O)O)ccc23)cc1	9.26	45.9	> 10	–
CC(C)Oc1ccc(Nc2ncc3c(n2)c(NC2CC2)nc2cc(C(=O)O)ccc23)cc1	18.9	26.3	> 10	–
CC(=O)Nc1cccc(Nc2ncc3c(n2)c(NC2CC2)nc2cc(C(=O)O)ccc23)c1	> 62.5	32	> 10	–
O=C(O)c1ccc2c(c1)nc(NC1CC1)c1nc(Nc3cc(F)ccc3F)ncc12	15.7	50.4	> 10	IC50 (recombinant human PIM1): > 1.1 µM
O=C(O)c1ccc2c(c1)nc(NC1CC1)c1nc(Nc3cc(F)cc(F)c3)ncc12	35.4	46.3	> 10	–
Nc1nc2cc(C(=O)O)ccc2c2cnc(NC3CC3)nc12	55.2	0.938	> 10	–
O=C(O)c1ccc2c(c1)nc(Nc1ccc(Oc3ccccc3)cc1)c1ccncc12	22.9	57.2	> 10	IC50 (recombinant human PIM1): > 1.1 µM
C#Cc1cccc(Nc2nc3cc(C(=O)N4CCCC4)ccc3c3cncnc23)c1	13.3	-7.6	> 10	–
C#Cc1cccc(Nc2nc3cc(C(=O)N4CCOCC4)ccc3c3cncnc23)c1	> 30	-17.6	> 10	–
C#Cc1cccc(Nc2nc3cc(C(=O)N(C)c4ccccc4)ccc3c3cncnc23)c1	18.8	-11.2	> 10	–
C#Cc1cccc(Nc2nc3cc(C(=O)NCc4ccc(C#N)cc4)ccc3c3cncnc23)c1	9.09	-14.6	> 10	–
C#Cc1cccc(Nc2nc3cc(C(=O)N(C)CCN(C)C)ccc3c3cncnc23)c1	4.37	-15.5	4.39	–
C#Cc1cccc(Nc2nc3cc(C(=O)N4CCCN(C)CC4)ccc3c3cncnc23)c1	3.22	-11.2	> 10	–
CSc1ncc2c(n1)c(N(C)c1ccccc1)nc1cc(C(=O)O)ccc12	> 30	48.4	> 10	IC50 (recombinant human PIM1): 1.09 µM
COc1ccc(Nc2nc3cc(C(=O)O)ccc3c3cnccc23)cc1OC	–	59.3	–	IC50 (K-562): > 10 µM; IC50 [1, 3]: > 10 µM; inhibition at 0.5 µM (recombinant human CK2): 98.5%; IC50 (recombinant human PIM1): 0.311 µM; IC50 (MV-4-11): > 10 µM
O=C(O)c1ccc2c(c1)nc(Nc1ccc3c(c1)OCO3)c1ccncc12	–	76	–	IC50 (K-562): > 10 µM; IC50 [1, 3]: > 10 µM; inhibition at 0.5 µM (recombinant human CK2): 101%; IC50 (recombinant human PIM1): 0.157 µM; IC50 (MV-4-11): 8.87 µM
NC(=O)c1ccc(Nc2nc3cc(C(=O)O)ccc3c3cnccc23)cc1	–	78.2	–	IC50 (K-562): > 10 µM; IC50 [1, 3]: > 10 µM; inhibition at 0.5 µM (recombinant human CK2): -5.09%; IC50 (recombinant human PIM1): 0.248 µM; IC50 (MV-4-11): > 10 µM
O=C(O)c1ccc2c(c1)nc(Nc1cncc(C3CC3)c1)c1ccncc12 [drawing 1619]	> 50	–	> 10	–
CC1CCCCN1CCCNc1ncc2c(n1)c(Nc1ccc(F)c(Cl)c1)nc1cc(C(=O)O)ccc12 (stereo not drawn) [drawing 1629]	2.86	38.9	–	–
COc1cccc(Nc2ncc3c(n2)c(NC2CC2)nc2cc(C(=O)O)ccc23)c1 [drawing 1717]	–	–	–	IC50 (Jurkat): 54.6 µM; PIM-1: % inh 500 nM (recombinant human PIM1): 5.494%
COc1cccc(Nc2ncc3c(n2)c(NC2CC2)nc2cc(C(=O)O)ccc23)c1 [drawing 1720]	–	–	–	IC50 (Jurkat): 3.15 µM; PIM-1: % inh 500 nM (recombinant human PIM1): 60.859%; IC50 (recombinant human PIM1): 0.97 µM

— patent publication US8168651B2, “Protein kinase modulators” (Cylene Pharmaceuticals, Inc., priority 2008, dated 2012)
